In patent publication US12492188B2, “1H-benzo[D]imidazole derivatives as TLR9 inhibitors for the treatment of fibrosis” (BRISTOL-MYERS SQUIBB COMPANY, priority 2020, dated 2025):
Read-outs that look alike come from different tables or passages of the source.

Molecular target: T1, human TLR9 (Homo sapiens, UniProt Q9NR96)
T1 construct: host or cells: HEK-Blue cells (HEK293-derived reporter line)
T1 sequence (Q9NR96 26-1032): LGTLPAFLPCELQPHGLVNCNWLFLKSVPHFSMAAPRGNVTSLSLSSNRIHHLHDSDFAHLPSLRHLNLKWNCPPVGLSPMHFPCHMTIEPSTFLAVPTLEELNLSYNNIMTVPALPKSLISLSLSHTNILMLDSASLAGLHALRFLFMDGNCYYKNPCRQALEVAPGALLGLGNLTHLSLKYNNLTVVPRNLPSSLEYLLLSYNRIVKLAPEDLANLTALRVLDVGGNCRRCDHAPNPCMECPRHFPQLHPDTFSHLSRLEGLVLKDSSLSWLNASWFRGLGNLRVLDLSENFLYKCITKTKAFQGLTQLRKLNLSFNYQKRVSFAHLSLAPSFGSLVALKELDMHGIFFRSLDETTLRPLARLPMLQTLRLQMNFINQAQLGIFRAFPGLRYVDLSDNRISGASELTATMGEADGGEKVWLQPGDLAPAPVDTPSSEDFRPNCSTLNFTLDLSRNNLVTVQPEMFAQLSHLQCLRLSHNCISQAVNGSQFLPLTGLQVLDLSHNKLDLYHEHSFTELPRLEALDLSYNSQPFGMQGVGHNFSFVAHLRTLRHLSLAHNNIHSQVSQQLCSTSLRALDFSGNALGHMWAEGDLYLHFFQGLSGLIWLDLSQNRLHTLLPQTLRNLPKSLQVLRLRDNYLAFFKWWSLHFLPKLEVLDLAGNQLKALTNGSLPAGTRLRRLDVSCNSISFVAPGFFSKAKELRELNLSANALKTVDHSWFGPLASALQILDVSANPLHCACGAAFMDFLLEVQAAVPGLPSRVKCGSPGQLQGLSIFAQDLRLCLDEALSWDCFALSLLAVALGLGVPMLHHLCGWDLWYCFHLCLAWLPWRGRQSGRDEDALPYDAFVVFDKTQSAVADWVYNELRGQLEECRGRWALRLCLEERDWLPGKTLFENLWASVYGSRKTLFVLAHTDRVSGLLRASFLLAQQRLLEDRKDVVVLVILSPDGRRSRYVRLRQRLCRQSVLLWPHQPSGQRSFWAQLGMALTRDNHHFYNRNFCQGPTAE
Test: TLR9 inhibition reporter assay (HEK-Blue cells, secreted embryonic alkaline phosphatase reporter)
Type: cell-based
Method in brief: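 HEK-Blue cells expressing human TLR7, TLR8 or TLR9 with an NF-κB/AP-1-driven SEAP reporter were pretreated with compound (0.05 nM–50 μM final) for 30 min at room temperature. Agonists were gardiquimod 7.5 μM for TLR7, R848 15.9 μM for TLR8 and ODN2006 5 nM for TLR9. SEAP was read after 22 h at 37 °C, and inhibition was calculated relative to agonist-plus-DMSO and known-inhibitor controls.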

[1] = HEK-Blue cells overexpressing human TLR9, stimulated with ODN2006 5 nM, read-out: TLR 9 IC50
[2] = HEK-Blue human TLR9 reporter cells
[3] = HEK-Blue cells overexpressing human TLR9, stimulated with ODN2006 5 nM, 22 hour incubation, reporter readout

IC50	IC50 [1]	IC50 [2]	IC50 [3]	SMILES
62 nM	62 nM	–	–	COc1ccc(-c2nc3c(C)cc(C4CCN(C5CC6CCC(C5)N6C(C)C)CC4)cc3n2C)cc1OC (stereo not drawn) [Example 144, 2-(3,4-dimethoxyphenyl)-6-(1-(8-isopropyl-8-azabicyclo[3.2.1]octan-3-yl)piperidin-4-yl)-1,4-dimethyl-1H-benzo[d]imidazole]
34 nM	34 nM	–	–	COc1ccc(-c2nc3c(C)cc(C4CCN(C5CC6CCC(C5)N6CC5CC5)CC4)cc3n2C)cc1OC (stereo not drawn) [Example 148, 6-(1-(8-(cyclopropylmethyl)-8-azabicyclo[3.2.1]octan-3-yl)piperidin-4-yl)-2-(3,4-dimethoxyphenyl)-1,4-dimethyl-1H-benzo[d]imidazole]
340 nM	339 nM	–	–	Cc1cc(C2CCN(C3CC4CCC(C3)N4CC3CCC3)CC2)cc2c1nc(-c1ccc(S(C)(=O)=O)cc1)n2C (single isomer, unassigned) [Example 157, 6-(1-(8-(cyclobutylmethyl)-8-azabicyclo[3.2.1]octan-3-yl)piperidin-4-yl)-1,4-dimethyl-2-(4-(methylsulfonyl)phenyl)-1H-benzo[d]imidazole]
–	24 nM	24 nM	–	Cc1cc(C2CCN(C3CC4CCC(C3)N4C3CCC3)CC2)cc2[nH]c(-c3ccc(S(C)(=O)=O)c(F)c3)nc12 (stereo not drawn) [Example 349, 6-(1-(8-cyclobutyl-8-azabicyclo[3.2.1]octan-3-yl)piperidin-4-yl)-2-(3-fluoro-4-(methylsulfonyl)phenyl)-4-methyl-1H-benzo[d]imidazole]
–	446 nM	–	450 nM	Cc1cc(-c2ccc(CCN3CCC(C)(O)CC3)cc2)cc2c1nc(-c1ccc(S(C)(=O)=O)cc1)n2C [Example 366, 1-(4-(1,4-dimethyl-2-(4-(methylsulfonyl)phenyl)-1H-benzo[d]imidazol-6-yl)phenethyl)-4-methylpiperidin-4-ol]
–	241 nM	–	240 nM	Cc1cc(C2CCN(C3CCN(CC(C)C)CC3)CC2)cc2[nH]c(-c3ccc(OC(F)F)c(F)c3)nc12 [Example 69, 2-(4-(difluoromethoxy)-3-fluorophenyl)-6-(1′-isobutyl-[1,4′-bipiperidin]-4-yl)-4-methyl-1H-benzo[d]imidazole tris(2,2,2-trifluoroacetate)]
–	196 nM	–	200 nM	Cc1cc(C2CCN(C3CCN(CC(C)C)CC3)CC2)cc2[nH]c(-c3ccc(OC(F)(F)F)cc3)nc12 [Example 63, 6-(1′-isobutyl-[1,4′-bipiperidin]-4-yl)-4-methyl-2-(4-(trifluoromethoxy)phenyl)-1H-benzo[d]imidazole]
–	–	–	61 nM	CN(C)c1ccc(-c2nc3ccc(-c4ccc(CN5CCC(N(C)C)CC5)cc4)cc3n2C)cc1 [Example 425, 1-(4-(2-(4-(dimethylamino)phenyl)-1-methyl-1H-benzo[d]imidazol-6-yl)benzyl)-N,N-dimethylpiperidin-4-amine]
270 nM	268 nM	–	–	COc1ccc(-c2nc3c(F)cc(C4CCN(C5CCN(C6CC6)CC5)CC4)cc3[nH]2)cc1OC [Example 128, 6-(1′-cyclopropyl-[1,4′-bipiperidin]-4-yl)-2-(3,4-dimethoxyphenyl)-4-fluoro-1H-benzo[d]imidazole]
–	140 nM	–	140 nM	CN(C)C1CCN(Cc2ccc(-c3ccc4nc(-c5cc(F)cc(F)c5)n(C)c4c3)cc2)CC1 [Example 381, 1-(4-(2-(3,5-difluorophenyl)-1-methyl-1H-benzo[d]imidazol-6-yl)benzyl)-N,N-dimethylpiperidin-4-amine]
–	152 nM	150 nM	–	COc1cc(-c2nc3c(C)cc(C4CCN(C5CC6CCC(C5)N6C(C)C)CC4)cc3[nH]2)cn2ncnc12 (stereo not drawn) [Example 362, 6-(6-(1-(8-isopropyl-8-azabicyclo[3.2.1]octan-3-yl)piperidin-4-yl)-4-methyl-1H-benzo[d]imidazol-2-yl)-8-methoxy-[1,2,4]triazolo[1,5-a]pyridine]
–	800 nM	–	800 nM	Cc1cc(-c2ccc(OC3CCN(CC(C)C)CC3)cc2)cc2c1nc(-c1ccc(S(C)(=O)=O)cc1)n2C [Example 417, 6-(4-((1-isobutylpiperidin-4-yl)oxy)phenyl)-1,4-dimethyl-2-(4-(methylsulfonyl)phenyl)-1H-benzo[d]imidazole]
68 nM	68 nM	–	–	Cc1cc(C2CCN(C3CC4(C3)CN(CC3CC3)C4)CC2)cc2c1nc(-c1ccc(S(C)(=O)=O)cc1)n2C [Example 142, 6-(1-(2-(cyclopropylmethyl)-2-azaspiro[3.3]heptan-6-yl)piperidin-4-yl)-1,4-dimethyl-2-(4-(methylsulfonyl)phenyl)-1H-benzo[d]imidazole]
290 nM	290 nM	–	–	Cc1cc(C2CCN(C3CC4(C3)CN(C3CCC3)C4)CC2)cc2c1nc(-c1ccc(S(C)(=O)=O)cc1)n2C [Example 140, 6-(1-(2-cyclobutyl-2-azaspiro[3.3]heptan-6-yl)piperidin-4-yl)-1,4-dimethyl-2-(4-(methylsulfonyl)phenyl)-1H-benzo[d]imidazole]
–	84 nM	84 nM	–	Cc1cc(C2CCN(C3CC4CCC(C3)N4CC3CC3)CC2)cc2c1nc(-c1ccc(S(C)(=O)=O)c(F)c1)n2C (stereo not drawn) [Example 340, 6-(1-(8-(cyclopropylmethyl)-8-azabicyclo[3.2.1]octan-3-yl)piperidin-4-yl)-2-(3-fluoro-4-(methylsulfonyl)phenyl)-1,4-dimethyl-1H-benzo[d]imidazole]
31 nM	31 nM	–	–	COc1ccc(-c2nc3c(F)cc(C4CCN(C5CCN(CC(C)C)CC5)CC4)cc3[nH]2)cc1OC [Example 127, 2-(3,4-dimethoxyphenyl)-4-fluoro-6-(1′-isobutyl-[1,4′-bipiperidin]-4-yl)-1H-benzo[d]imidazole]
–	63 nM	–	63 nM	Cc1cc(C2CCN(C3CCN(CC(C)C)CC3)CC2)cc2[nH]c(-c3ccc(S(=O)(=O)c4ccccc4)cc3)nc12 [Example 75, 6-(1′-isobutyl-[1,4′-bipiperidin]-4-yl)-4-methyl-2-(4-(phenylsulfonyl)phenyl)-1H-benzo[d]imidazole tris(2,2,2-trifluoroacetate)]
–	358 nM	–	360 nM	Cc1cc(C2CCN(C3CCN(CC(C)C)CC3)CC2)cc2[nH]c(-c3ccccc3OC(F)(F)F)nc12 [Example 80, 6-(1′-isobutyl-[1,4′-bipiperidin]-4-yl)-4-methyl-2-(2-(trifluoromethoxy)phenyl)-1H-benzo[d]imidazole tris(2,2,2-trifluoroacetate)]
–	1390 nM	1400 nM	–	Cc1c(C2CCN(C3CCN(CC(C)C)CC3)CC2)ccc2nc(-c3ccc(S(C)(=O)=O)cc3)n(C)c12 [Example 330, 6-(1′-isobutyl-[1,4′-bipiperidin]-4-yl)-1,7-dimethyl-2-(4-(methylsulfonyl)phenyl)-1H-benzo[d]imidazole]
–	1090 nM	–	1100 nM	Cc1c(C2CCN(C3CCN(C(C)C)CC3)CC2)ccc2nc(-c3ccc(S(C)(=O)=O)cc3)n(C)c12 [Example 119, 6-(1′-isopropyl-[1,4′-bipiperidin]-4-yl)-1,7-dimethyl-2-(4-(methylsulfonyl)phenyl)-1H-benzo[d]imidazole]
–	88 nM	–	88 nM	Cc1cc(C2CCN(C3CCN(CC(C)C)CC3)CC2)cc2[nH]c(-c3cccc4ncccc34)nc12 [Example 72, 5-(6-(1′-isobutyl-[1,4′-bipiperidin]-4-yl)-4-methyl-1H-benzo[d]imidazol-2-yl)quinoline tris(2,2,2-trifluoroacetate)]
–	44 nM	–	44 nM	Cc1cc(C2CCN(C3CCN(CC(C)C)CC3)CC2)cc2[nH]c(-c3ccc(S(C)(=O)=O)c(Br)c3)nc12 [Example 67, 2-(3-bromo-4-(methylsulfonyl)phenyl)-6-(1′-isobutyl-[1,4′-bipiperidin]-4-yl)-4-methyl-1H-benzo[d]imidazole]
680 nM	680 nM	–	–	Cc1cc(-c2ccc(N3CCN(C4CCOCC4)CC3)cc2)cc2c1nc(-c1ccc(S(C)(=O)=O)cc1)n2C [Example 176, 1,4-dimethyl-2-(4-(methylsulfonyl)phenyl)-6-(4-(4-(tetrahydro-2H-pyran-4-yl)piperazin-1-yl)phenyl)-1H-benzo[d]imidazole]
